{"source": "patent US8354407B2", "about": "(Boehringer Ingelheim International GmbH, priority 2006, dated 2013)", "target": "T1, full-length human PKCα enzyme (Homo sapiens, UniProt P17252)", "T1 construct": "full-length human PKCα enzyme; purchased Upstate Biotechnology", "assay": "Assessment of PKC-α Inhibitory Activity (MALDI-TOF kinase assay)", "assay_type": "biochemical", "details": "full-length human PKCα 0.12 μg/ml; ATP 45 μM; neurogranin 28-43 peptide 22 μM; 30 minute incubation at 24° C.; MALDI-TOF MS readout", "method": "Measurement of PKCα enzyme activity is performed using full-length human PKCα enzyme (Upstate Biotechnology) at a final concentration of 0.12 μg/ml in a kinase assay buffer (0.09 mg/ml bovine serum albumin (BSA), 210 μM ethylenediaminetetraacetic acid (EDTA), 360 μM CaCl2, 1 mM Tris-HCl, pH=7.5, 0.5 mM MgCl2, 0.015 mg/ml phosphatidylserine and 0.015 mg/ml diacylglycerol). The reaction is initiated by addition of adenosine triphosphate (ATP; final concentration 45 μM) and a peptide substrate consisting of amino acids 28-43 (Ala-Ala-Lys-Ile-Gln-Ala-Ser-Phe-Arg-Gly-His-Met-Ala-Arg-Lys-Lys) of neurogranin (Promega; final concentration 22 μM). After a 30 minute incubation at 24° C. the reaction is terminated by adding 5 μL of the reaction mixture into 50 μL of MALDI matrix solution (5 mg/ml α-cyano-4-hydroxycinnamic acid in 50% Acetonitrile/H2O, 0.1% TFA, 5 mM ammonium phosphate). Two microliters of the stopped reaction mixture is transferred onto a MALDI-TOF mass spectrometer target plate.\nAll spectra are collected on an Applied Biosystems 4700 Proteomics Analyzer MALDI-TOF MS equipped with a Nd:YAG laser (355 nm, 3 ns pulse width, 200 Hz repetition rate) in negative ion reflector mode. The system is operated with 4700 Explorer software, version 3.0. Automated acquisition parameters are adjusted to capture and average only those individual spectra within defined success criteria. Specifically, signal intensities for the substrate peptide are set to a minimum threshold of 3000 counts and a maximum intensity of 65,000 counts. This ensured that neither null spectra nor saturated spectra are averaged into the final readout. Between 1000 and 1500 laser shots are averaged for each sample. Data are collected in triplicate from 3 successive days to capture the maximum variability related to preparation of enzyme reaction, transfer of samples to MALDI target plates, data collection, and data extraction.\nThe isotope cluster areas for each peptide substrate and product peaks are extracted into a Microsoft Excel worksheet from the 10×10 array of spectral data simultaneously using the automated analysis function provided within the 4700 Explore software. The isotope cluster area is defined by the software algorithm based on the molecular weight and the general elemental composition of the peptides. The percent conversion (% C) of substrate to product is calculated as the cluster area of the product (P) divided by the sum of the cluster areas of the substrate (S) and the product multiplied by 100 as represented by the following equation: […]\nFor dose-dependent inhibition studies, the inhibition is plotted as a % Maximal Activity (% MA). Equation one is a measure of the ratio of product to substrate then solving for the % C. However, to measure inhibition of the enzyme activity, one must measure the degree to which that activity (% C) is curtailed. Thus the dose-dependant inhibition data is plotted as % MA where the maximal activity is the % C measured in control reactions with no inhibitor as represented by the following equation: […]"}
{"smiles": "Clc1cc(Nc2nccc(NCCCN3CCCC3)n2)ccc1OCc1ccccc1", "note": "[N^2-(4-(Benzyloxy)-3-chlorophenyl)-N^4-(3-pyrrolidin-1-yl-propyl)-pyrimidine-2,4-diamine]", "values": [{"measurement": "IC50", "result": 40, "unit": "nM"}]}
